Experimental findings from ChEMBL document CHEMBL5291721, “A preclinical secondary pharmacology resource illuminates target-adverse drug reaction associations of marketed drugs” (Nat Commun, 2023) are described below.

The target in assay [1] is Neuronal acetylcholine receptor subunit alpha-4 (Homo sapiens, UniProt P43681).
Assay [2] addresses T1, Cholecystokinin receptor type A (Homo sapiens, UniProt P32238).
T1 sequence (P32238 whole entry): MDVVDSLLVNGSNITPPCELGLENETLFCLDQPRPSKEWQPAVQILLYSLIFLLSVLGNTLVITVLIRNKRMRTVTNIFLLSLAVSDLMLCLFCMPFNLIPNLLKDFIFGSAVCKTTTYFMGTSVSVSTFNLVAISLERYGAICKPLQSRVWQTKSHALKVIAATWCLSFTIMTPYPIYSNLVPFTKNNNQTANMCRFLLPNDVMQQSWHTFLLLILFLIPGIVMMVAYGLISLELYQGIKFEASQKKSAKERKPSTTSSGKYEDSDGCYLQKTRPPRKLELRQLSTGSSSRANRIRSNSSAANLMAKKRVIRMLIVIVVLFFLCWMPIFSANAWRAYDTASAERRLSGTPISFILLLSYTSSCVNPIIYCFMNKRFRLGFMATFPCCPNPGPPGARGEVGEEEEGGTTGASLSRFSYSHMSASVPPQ

Assay [3] deals with T2, Amine oxidase [flavin-containing] A (Homo sapiens, UniProt P21397).
T2 sequence (P21397 whole entry): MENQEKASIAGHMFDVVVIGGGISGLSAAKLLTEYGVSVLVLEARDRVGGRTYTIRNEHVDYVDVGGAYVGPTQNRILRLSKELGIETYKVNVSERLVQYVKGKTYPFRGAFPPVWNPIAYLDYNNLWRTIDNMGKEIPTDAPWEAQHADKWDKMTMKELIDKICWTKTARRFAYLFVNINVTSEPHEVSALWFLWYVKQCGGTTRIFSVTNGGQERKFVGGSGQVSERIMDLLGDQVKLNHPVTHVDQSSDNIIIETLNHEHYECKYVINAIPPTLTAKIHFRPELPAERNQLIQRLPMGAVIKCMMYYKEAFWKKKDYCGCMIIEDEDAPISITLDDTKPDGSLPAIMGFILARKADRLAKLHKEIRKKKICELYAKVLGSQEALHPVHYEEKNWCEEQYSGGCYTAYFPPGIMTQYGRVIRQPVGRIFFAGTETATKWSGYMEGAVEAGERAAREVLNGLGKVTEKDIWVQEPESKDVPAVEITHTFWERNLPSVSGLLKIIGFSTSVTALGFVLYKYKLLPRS
In kind it is functional.

The target of assay [4] is T3, Endothelin-1 receptor (Homo sapiens, UniProt P25101).
T3 sequence (P25101 whole entry): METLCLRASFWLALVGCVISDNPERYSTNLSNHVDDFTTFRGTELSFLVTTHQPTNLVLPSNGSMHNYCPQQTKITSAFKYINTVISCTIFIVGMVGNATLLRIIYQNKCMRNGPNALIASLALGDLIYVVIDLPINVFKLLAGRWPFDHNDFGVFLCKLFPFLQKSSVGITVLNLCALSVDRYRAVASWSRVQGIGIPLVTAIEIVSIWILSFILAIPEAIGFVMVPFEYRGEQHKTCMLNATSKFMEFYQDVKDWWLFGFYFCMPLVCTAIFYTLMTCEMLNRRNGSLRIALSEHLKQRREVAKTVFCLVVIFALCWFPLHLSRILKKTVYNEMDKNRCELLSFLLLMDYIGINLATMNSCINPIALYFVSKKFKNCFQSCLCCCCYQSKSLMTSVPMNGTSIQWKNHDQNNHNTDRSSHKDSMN

The target of assay [5] is Cannabinoid receptor 1 (Homo sapiens, UniProt P21554). In kind it is functional, cell-based.
Sequence of Cannabinoid receptor 1 (P21554 whole entry): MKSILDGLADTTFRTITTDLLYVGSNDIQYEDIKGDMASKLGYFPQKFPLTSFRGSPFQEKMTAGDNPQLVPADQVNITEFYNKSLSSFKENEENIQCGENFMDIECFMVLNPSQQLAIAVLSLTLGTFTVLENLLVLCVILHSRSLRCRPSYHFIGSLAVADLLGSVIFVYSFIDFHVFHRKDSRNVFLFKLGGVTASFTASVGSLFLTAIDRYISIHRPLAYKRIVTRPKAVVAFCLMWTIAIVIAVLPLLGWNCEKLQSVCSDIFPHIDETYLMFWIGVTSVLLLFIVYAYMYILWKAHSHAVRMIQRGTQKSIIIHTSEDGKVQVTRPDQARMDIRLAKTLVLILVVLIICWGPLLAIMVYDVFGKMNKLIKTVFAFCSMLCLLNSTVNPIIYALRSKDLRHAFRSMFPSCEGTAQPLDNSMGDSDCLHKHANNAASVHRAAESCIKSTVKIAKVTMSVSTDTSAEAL
In assay [6] the target is Sodium-dependent dopamine transporter (Homo sapiens, UniProt Q01959).
Sequence of Sodium-dependent dopamine transporter (Q01959 whole entry): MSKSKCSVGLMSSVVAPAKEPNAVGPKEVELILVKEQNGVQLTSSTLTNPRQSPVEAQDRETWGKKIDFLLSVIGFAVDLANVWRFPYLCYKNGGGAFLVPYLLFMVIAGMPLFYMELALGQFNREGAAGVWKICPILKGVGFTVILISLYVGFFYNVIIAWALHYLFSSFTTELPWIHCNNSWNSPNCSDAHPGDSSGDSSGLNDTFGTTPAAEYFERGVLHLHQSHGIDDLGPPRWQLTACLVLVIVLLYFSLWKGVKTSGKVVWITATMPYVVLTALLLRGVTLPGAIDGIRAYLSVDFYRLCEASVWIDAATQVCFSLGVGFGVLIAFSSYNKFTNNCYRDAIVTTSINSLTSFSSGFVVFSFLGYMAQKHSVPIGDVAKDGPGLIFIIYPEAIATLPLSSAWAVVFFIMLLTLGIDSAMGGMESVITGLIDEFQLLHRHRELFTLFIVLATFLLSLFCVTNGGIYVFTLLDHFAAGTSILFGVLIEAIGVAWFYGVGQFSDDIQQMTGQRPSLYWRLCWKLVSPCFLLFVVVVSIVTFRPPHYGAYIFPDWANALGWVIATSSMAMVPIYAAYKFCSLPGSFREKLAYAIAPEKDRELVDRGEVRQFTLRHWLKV
The target of assay [7] is Muscarinic acetylcholine receptor M3 (Homo sapiens, UniProt P20309).
Assay [8] has as its target T4, 5-hydroxytryptamine receptor 2C (Homo sapiens, UniProt P28335).
T4 sequence (P28335 whole entry): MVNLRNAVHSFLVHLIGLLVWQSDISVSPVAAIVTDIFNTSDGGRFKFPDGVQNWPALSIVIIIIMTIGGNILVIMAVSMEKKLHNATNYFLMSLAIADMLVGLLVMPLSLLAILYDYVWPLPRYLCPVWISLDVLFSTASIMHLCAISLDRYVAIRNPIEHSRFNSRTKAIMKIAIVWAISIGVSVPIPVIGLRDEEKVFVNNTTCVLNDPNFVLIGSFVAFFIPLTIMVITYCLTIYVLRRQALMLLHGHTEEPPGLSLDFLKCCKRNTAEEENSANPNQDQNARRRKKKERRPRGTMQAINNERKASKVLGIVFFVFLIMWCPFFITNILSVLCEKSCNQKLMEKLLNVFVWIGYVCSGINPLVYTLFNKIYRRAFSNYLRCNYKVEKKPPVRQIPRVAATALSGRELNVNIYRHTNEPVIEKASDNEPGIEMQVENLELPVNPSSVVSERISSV

Assay [9] deals with Mu-type opioid receptor (Homo sapiens, UniProt P35372). The experiment in a line: biochemical. The assay is classed as functional.
Sequence of Mu-type opioid receptor (P35372 whole entry): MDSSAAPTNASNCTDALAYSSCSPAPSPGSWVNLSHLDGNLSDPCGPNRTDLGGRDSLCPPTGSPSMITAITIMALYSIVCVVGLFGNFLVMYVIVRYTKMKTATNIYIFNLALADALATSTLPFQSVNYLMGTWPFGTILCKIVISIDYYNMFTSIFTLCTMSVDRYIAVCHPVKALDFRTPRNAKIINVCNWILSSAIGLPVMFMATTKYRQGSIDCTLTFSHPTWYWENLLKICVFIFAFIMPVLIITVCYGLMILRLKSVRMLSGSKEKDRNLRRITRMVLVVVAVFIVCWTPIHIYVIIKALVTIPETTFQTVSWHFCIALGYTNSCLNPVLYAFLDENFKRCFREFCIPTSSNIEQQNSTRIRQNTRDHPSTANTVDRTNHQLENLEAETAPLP
In assay [10] the target is Beta-1 adrenergic receptor (Homo sapiens, UniProt P08588). In kind it is functional.
Sequence of Beta-1 adrenergic receptor (P08588 whole entry): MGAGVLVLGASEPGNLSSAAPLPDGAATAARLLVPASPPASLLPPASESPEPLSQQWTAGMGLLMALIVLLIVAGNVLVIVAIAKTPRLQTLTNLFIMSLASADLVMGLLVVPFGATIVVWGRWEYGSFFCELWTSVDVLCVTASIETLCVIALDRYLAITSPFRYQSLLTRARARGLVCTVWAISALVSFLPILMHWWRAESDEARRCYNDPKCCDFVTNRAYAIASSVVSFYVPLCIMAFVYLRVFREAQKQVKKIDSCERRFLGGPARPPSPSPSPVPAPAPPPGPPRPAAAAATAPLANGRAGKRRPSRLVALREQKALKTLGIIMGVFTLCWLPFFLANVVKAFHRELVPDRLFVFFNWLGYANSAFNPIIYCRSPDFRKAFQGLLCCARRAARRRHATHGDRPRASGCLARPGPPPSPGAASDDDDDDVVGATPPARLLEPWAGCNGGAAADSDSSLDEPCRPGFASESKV
Assay [11] has as its target Voltage-dependent L-type calcium channel subunit alpha-1C (Rattus norvegicus, UniProt P22002). In kind it is functional.
Note: assay procedure not described here.

Sequence of Neuronal acetylcholine receptor subunit alpha-4 (P43681 whole entry): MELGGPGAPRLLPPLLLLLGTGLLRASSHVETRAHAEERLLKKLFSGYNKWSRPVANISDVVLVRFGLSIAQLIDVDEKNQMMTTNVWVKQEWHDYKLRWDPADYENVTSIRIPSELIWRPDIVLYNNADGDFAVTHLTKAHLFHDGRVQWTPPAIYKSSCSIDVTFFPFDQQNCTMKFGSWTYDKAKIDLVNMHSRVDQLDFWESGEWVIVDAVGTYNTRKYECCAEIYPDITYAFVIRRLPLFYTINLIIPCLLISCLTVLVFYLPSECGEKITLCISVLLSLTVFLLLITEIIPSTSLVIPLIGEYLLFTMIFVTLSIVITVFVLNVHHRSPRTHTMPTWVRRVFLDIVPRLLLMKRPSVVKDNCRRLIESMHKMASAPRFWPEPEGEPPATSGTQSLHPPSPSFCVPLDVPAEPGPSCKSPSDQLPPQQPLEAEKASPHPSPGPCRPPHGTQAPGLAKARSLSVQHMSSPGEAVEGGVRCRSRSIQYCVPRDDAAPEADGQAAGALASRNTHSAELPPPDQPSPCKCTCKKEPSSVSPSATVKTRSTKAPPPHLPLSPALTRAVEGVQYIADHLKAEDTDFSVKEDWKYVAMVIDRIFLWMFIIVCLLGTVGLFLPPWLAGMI
Sequence of Voltage-dependent L-type calcium channel subunit alpha-1C (P22002 whole entry): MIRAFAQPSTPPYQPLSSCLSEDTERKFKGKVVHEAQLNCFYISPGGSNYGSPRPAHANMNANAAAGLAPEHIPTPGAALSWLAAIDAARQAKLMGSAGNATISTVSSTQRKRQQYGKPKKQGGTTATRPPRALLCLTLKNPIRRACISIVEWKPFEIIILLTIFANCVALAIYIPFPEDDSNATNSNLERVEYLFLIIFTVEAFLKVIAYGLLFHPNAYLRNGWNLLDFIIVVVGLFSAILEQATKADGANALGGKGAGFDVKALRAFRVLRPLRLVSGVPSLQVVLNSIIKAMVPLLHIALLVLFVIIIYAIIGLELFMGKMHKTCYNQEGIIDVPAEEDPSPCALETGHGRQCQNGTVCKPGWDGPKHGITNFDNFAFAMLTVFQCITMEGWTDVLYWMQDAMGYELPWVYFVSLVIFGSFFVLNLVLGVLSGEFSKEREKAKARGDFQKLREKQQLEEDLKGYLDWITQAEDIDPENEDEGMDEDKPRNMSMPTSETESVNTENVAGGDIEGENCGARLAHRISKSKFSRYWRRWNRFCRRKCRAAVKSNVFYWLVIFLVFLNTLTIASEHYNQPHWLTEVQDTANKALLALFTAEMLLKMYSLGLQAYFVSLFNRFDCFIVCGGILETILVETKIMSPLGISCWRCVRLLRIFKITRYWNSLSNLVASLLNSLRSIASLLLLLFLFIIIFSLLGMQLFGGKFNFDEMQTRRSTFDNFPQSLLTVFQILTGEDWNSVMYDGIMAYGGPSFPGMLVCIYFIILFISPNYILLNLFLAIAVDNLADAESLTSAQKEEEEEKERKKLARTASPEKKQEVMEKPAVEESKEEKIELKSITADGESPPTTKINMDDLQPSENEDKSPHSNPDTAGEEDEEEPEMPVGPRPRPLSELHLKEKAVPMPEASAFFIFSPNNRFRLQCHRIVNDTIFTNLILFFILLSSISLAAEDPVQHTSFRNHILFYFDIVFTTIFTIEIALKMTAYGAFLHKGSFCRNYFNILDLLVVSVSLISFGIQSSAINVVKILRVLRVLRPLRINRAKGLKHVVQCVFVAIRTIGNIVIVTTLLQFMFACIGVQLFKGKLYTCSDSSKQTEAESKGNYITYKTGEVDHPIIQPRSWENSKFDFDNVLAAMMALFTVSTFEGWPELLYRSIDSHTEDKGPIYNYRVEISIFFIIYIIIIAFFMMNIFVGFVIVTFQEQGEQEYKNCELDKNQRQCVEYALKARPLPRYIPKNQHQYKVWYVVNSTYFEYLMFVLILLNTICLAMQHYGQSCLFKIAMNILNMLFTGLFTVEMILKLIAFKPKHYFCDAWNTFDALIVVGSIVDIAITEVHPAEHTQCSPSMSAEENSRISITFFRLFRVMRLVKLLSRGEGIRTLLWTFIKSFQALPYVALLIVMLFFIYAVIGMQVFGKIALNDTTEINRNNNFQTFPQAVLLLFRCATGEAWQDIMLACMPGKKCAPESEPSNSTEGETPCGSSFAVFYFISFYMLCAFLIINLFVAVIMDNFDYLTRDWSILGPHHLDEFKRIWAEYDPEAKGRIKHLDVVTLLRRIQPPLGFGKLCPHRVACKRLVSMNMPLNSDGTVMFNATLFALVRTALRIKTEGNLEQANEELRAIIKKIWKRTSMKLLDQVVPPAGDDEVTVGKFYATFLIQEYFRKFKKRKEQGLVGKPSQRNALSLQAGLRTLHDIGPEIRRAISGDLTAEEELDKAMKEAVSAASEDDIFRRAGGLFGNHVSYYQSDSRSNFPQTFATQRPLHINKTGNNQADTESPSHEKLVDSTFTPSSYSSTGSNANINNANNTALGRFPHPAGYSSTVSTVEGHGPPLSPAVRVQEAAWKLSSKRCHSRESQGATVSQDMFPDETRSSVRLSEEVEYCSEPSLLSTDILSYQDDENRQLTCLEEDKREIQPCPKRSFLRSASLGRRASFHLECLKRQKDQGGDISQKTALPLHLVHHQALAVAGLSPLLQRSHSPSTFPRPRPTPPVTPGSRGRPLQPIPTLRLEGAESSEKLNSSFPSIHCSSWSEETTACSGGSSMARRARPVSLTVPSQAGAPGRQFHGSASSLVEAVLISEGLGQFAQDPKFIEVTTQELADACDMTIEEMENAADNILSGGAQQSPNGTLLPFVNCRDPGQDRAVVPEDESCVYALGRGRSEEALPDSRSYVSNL

With `Nc1ncnc2c1ncn2[C@@H]1O[C@H](COP(=O)(O)O)[C@@H](O)[C@H]1O` [ADENOSINE PHOSPHATE], the AC50 in [1], in assay [2], in assay [3], in assay [4], in [5] and in assay [6] was > 30 µM each time. In addition, the AC50 in assay [7], in [8], in assay [9] and in [10] was > 30 µM in each case.

For the compound `CCCC(CCC)C(=O)O[C@H]1C[C@H]2CC[C@@H](C1)[N+]2(C)C` [ANISOTROPINE], the half-maximal activity concentration (AC50) in assay [1] is 26 µM; in assay [2] it was > 30 µM; in [3] it was > 30 µM; in assay [4], > 30 µM; in assay [5], > 30 µM; in assay [6], > 30 µM. Besides, the concentration at half-maximal activity (AC50) was 0.036 µM in [7], > 30 µM in assay [8], > 30 µM in [9] and > 30 µM in assay [10].

Regarding `CCCCCOC(=O)Nc1nc(=O)n([C@@H]2O[C@H](C)[C@@H](O)[C@H]2O)cc1F` [CAPECITABINE], the AC50 in assay [1], in assay [2], in assay [3], in [4], in [5] and in [6] was > 30 µM in each case. Further, the AC50 in assay [7], in assay [8], in [9] and in assay [10] was > 30 µM in each case.

With `O=C1CN=C(c2ccccc2)c2cc(Cl)ccc2N1CC(F)(F)F` [HALAZEPAM], the AC50 in [1], in assay [2], in [3], in assay [4], in assay [5] and in assay [6] was > 30 µM in each case. The AC50 was > 30 µM in assay [7], 1.2 µM in assay [9] and > 30 µM in assay [10].

On to `COC(=O)C1=C(C)NC(C)=C(C(=O)OC(C)C)C1c1cccc2nonc12` (stereo not given) [ISRADIPINE], for which the concentration at half-maximal activity (AC50) was 0.0045 µM in assay [11]; > 30 µM in assay [1]; > 30 µM in assay [2]; > 30 µM in assay [3]; 26 µM in [6]; > 30 µM in assay [7]. In addition, the values for the AC50 in assay [8], in assay [9] and in assay [10] were > 30 µM, > 30 µM and > 10 µM, respectively.

Regarding `CC/C=C\C/C=C\C/C=C\CCCCCCCC(=O)O` [LINOLENIC ACID], the AC50 in [1], in assay [2], in [3], in [4], in assay [5] and in [6] was > 30 µM throughout. The AC50 in assay [7], in [8], in assay [9] and in assay [10] was > 30 µM throughout.

On to `CC1=CC(=O)c2ccccc2C1=O` [MENADIONE], for which the AC50 is > 10 µM in [11]; > 10 µM in assay [1]; > 10 µM in [2]; 17 µM in assay [3]; > 10 µM in assay [6]; > 30 µM in assay [7]. The values for the AC50 in assay [8], in assay [9] and in [10] were > 30 µM, > 30 µM and > 10 µM, respectively.

For `C[C@H]1C[C@@H]2[C@H]([C@@H](O)C[C@@]3(C)[C@H]2CC[C@]3(O)C(=O)COC(=O)CCC(=O)O)[C@@]2(C)C=CC(=O)C=C12` [METHYLPREDNISOLONE HEMISUCCINATE], the AC50 in assay [1], in [2], in [3], in assay [4], in assay [5] and in assay [6] was > 30 µM each time. In addition, the AC50 in assay [7], in assay [8], in assay [9] and in [10] was > 30 µM in each case.

For `CCCCC(C)(O)C/C=C/[C@H]1[C@H](O)CC(=O)[C@@H]1CCCCCCC(=O)OC` (stereo not given in full) [MISOPROSTOL], the AC50 in assay [1], in assay [2], in assay [3], in [4], in [5] and in [6] was > 30 µM in each case. Moreover, the AC50 in [7] was > 30 µM; in assay [8], > 10 µM; in assay [9] it was > 30 µM; in [10] it was > 30 µM.

For `CCCCCCC(C)(C)c1cc(O)c2c(c1)OC(C)(C)C1CCC(=O)CC21` (stereo not given) [NABILONE], the AC50 in assay [1] was > 30 µM; in assay [2] it was > 30 µM; in assay [3], > 30 µM; in assay [4], > 30 µM; in assay [6] it was 16 µM; in assay [7] it was > 30 µM. Moreover, the concentration at half-maximal activity (AC50) in assay [8], in assay [9] and in [10] was > 30 µM throughout.

In the case of `CN1CCCN=C1COC(=O)C(O)(c1ccccc1)C1CCCCC1` (stereo not given) [OXYPHENCYCLIMINE], the AC50 in assay [11] is > 10 µM; in assay [1], > 10 µM; in assay [2], > 10 µM; in [3] it was > 10 µM; in [6], > 30 µM; in assay [7], > 30 µM. For the same compound, the AC50 in assay [8] was > 30 µM; in assay [9], > 30 µM; in assay [10] it was > 10 µM.

As to `O=C(O)CCCc1ccccc1` [PHENYLBUTANOIC ACID], the AC50 in assay [11] was > 30 µM; in [1] it was > 10 µM; in [2], > 10 µM; in [3] it was > 30 µM; in assay [4], > 30 µM; in assay [6], 3.2 µM. In addition, the AC50 in [7] was > 30 µM; in assay [8], > 30 µM; in assay [9], > 30 µM; in assay [10] it was > 10 µM.

Consider `Cc1nc2ccc(CN(C)c3ccc(C(=O)N[C@@H](CCC(=O)O)C(=O)O)s3)cc2c(=O)[nH]1` [RALTITREXED], for which the AC50 in [11], in [1], in [2], in [3], in [4] and in assay [6] was > 30 µM in each case. For the same compound, the AC50 in [7], in assay [8], in [9] and in assay [10] was > 30 µM in each case.

In the case of `COc1ccc(C(=O)N2CCN(c3ccc4c(c3)CCC(=O)N4)CC2)cc1OC` [VESNARINONE], the AC50 in assay [1], in [2], in assay [3], in assay [4], in assay [5] and in assay [6] was > 30 µM each time. Moreover, the AC50 in assay [7], in assay [8], in assay [9] and in assay [10] was > 30 µM throughout.
